The results in this text go back to patent US11065231B2, “Compounds and methods for the targeted degradation of interleukin-1 receptor- associated kinase 4 polypeptides” (Arvinas Operations, Inc., priority 2017, dated 2021).

pIC50: −log10 of the molar value.

Usually pIC50 stands for the IC50 on a negative log10 scale, so that one unit is a factor of ten. A higher pIC50 goes with a small IC50. In general, DC50 refers to the concentration giving 50% degradation. As usually defined, the Dmax is the largest share of the target that was removed.

The target in assay [1] is T1, IRAK4 (Homo sapiens (Human), UniProt Q9NWZ3). As to the kind of experiment: Biochemical Z'-Lyte FRET assay for IRAK4 kinase inhibition. Conditions: 2 nM enzyme, 1 mM ATP, 2 μM substrate. As to the method: Biochemical Assay for IRAK4 Kinase Inhibition.
A Z′-Lyte assay based on a fluorescence resonance energy transfer (FRET) readout was developed for measuring IRAK4-dependent phosphorylation of a FRET-peptide substrate as described by Thermo Fisher Scientific (Grand Island, N.Y.). At a starting concentration of 1.5 mM, the identified compounds were serially diluted with 100% dimethyl sulfoxide (DMSO) in 3-fold increments, into Greiner bio-one 96-well plates (cat. #: 650201, Greiner bio-one, Monroe, N.C.). Compounds were then transferred to intermediate Greiner bio-one 96-well plates and diluted 10-fold with Kinase assay buffer (25 mM HEPES, pH 7.5, 10 mM MgCl2, 10 mM MnCl2, 1 mM EGTA, and 0.01% Brij-35, 2 mM DTT). Three μL of the serially diluted compounds were then transferred in duplicate to low-volume 384-well black proxiplates (cat. #: 6008269; Perkin Elmer, Akron, Ohio), to give duplicate twelve-point concentration curves. Six μl of a 2.5× solution of IRAK4 enzyme (cat #: 40064, BPS Bioscience, San Diego, Calif.) in kinase buffer was added to each well, followed by a 10 minutes pre-incubation step. Reactions were initiated by adding 6 μl of a 2.5× substrate mix of ATP and Z′-Lyte Ser/Thr 7 peptide (cat. #: PV3180, Thermo Fisher Scientific, Grand Island, N.Y.) and proceeded at room temperature for 1 hour. The final concentration of key reagents in the 15 uL kinase reactions were 2 μM substrate, 2 nM enzyme, and 1 mM ATP, with dose responses starting at 30 μM compound. At the end of the kinase reactions, 5 μl of developing solution (as instructed in for cat. #: PV3180, Thermo Fisher Scientific, Grand Island, N.Y.) was added to each well and incubated at room temperature for 1 hour. All wells were read on an Envision 2105 Multilabel fluorescence plate reader (Perkin Elmer, Waltham, Mass.) at 400 nm excitation and 460 nm/530 nm emission. Plus and minus 100% inhibition controls were used to calculate percent inhibition and IC50 curves were generated using Graphpad Prism (La Jolla, Calif.).

Assay [2] concerns the target T1, IRAK4. As to the kind of experiment: Western blot assay for assessing degradation of IRAK4 in MCF7 cells. Type of assay: cell-based. Conditions: Table 5, IRAK4 degradation, 24 hour incubation; for DC50: read-out: IRAK4 DC50; for Dmax: read-out: IRAK4 Dmax (%). How it is done: Western Blot Assay for Assessing Degradation of IRAK4.
MCF7 cells, purchased from ATCC (Manassas, Va.), were used at a passage range of 2-19. Cells were seeded at 50% confluency in 96-well plates at 180 μl/well in cell media (Dulbecco's Modified Eagle medium/nutrient F-12 Ham-10% Fetal Bovine Serum) and incubated overnight. The next morning, compounds were serially diluted and added (20 μl into 180 μl media) at a final DMSO concentration of 0.1%. Cells were rinsed with cell media and replaced with compounds in media, followed by incubation overnight. After a 24 hour incubation with compound, cell were harvested (90-100% confluent at harvest). Cells were then washed once with 100 μl of Dulbecco's hosphate-buffered saline and then lysed with 40 μl of lysis buffer (1×RIPA+HALT protease inhibitor+HALT phosphatase inhibitor) on ice for 10 minutes. Lysates were then cleaned by filtration in 1.2 µm filter plates followed by western blotting. For each sample, 30 μl of lysate were added to 10 μl of 4×LDS sample buffer, then denatured at 95° C. for 5 minutes in the thermal cycler and placed on ice. Fifteen μL of each sample were then loaded on 4-15% Tris/Glycine gels and run for 25 minutes at 250 (constant) volts in 1× Tris/Glycine buffer. Protein was transferred from gels to nitrocellulose using a BioRad Turbo dry-transfer unit with the Turbo/midi default program. All blots were rinsed with ddH2O and blocked for 1 hour at room temperature in 5% bovine serum albumin (BSA) in tris-buffered saline-Tween 20 (TBS-T) (0.1%) on rocker. Blots were exposed to primary antibody in 5% BSA in TBS-T (0.1%) overnight at 4° C. on rocker. Primary antibodies, diluted 1:1000 in […], were as follows: anti-IRAK4 (cat. #: ab119942, Abcam, Cambridge, Mass.), anti-IRAK1 (cat. #: CST 4504S, Cell Signaling Technology, Danvers, Mass.), and anti-Beta-actin (Cat. #: ab8227, Abcam, Cambridge, Mass.). Blots were then washed with TBS-T (0.1%) three times for 5 minutes on a rocker at room temperature. Secondary antibody (1:18,000 anti-rabbit-HRP and/or anti-mouse-HRP in 5% BSA in TBST (0.1%) was then added, and blots incubated at room temperature rocker for 1 hour. Blots were washed 3 times in TBS-T (0.1%) for 5 minutes at room temperature on the rocker. Signal was developed with Femto Max substrate for 5 minutes and blots read on a ChemiDoc. Percent degradation was assessed by comparing IRAK4 signal in compound vs. DMSO treated lysates.

T1 sequence (Q9NWZ3 whole entry): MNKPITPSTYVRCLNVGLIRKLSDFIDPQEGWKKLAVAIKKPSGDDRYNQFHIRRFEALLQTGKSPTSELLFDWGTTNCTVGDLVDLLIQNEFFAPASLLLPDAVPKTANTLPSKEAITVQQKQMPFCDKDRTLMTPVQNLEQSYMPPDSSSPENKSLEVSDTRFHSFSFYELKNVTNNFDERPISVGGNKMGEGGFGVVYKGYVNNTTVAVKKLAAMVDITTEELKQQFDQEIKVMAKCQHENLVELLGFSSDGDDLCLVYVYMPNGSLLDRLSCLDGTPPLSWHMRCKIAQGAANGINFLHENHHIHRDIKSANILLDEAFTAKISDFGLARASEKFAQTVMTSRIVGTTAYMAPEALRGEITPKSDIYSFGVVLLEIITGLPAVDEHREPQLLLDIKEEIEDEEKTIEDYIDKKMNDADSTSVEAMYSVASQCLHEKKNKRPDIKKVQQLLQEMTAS

Compound `CC1CCC(n2c(NC(=O)c3cccc(C(F)(F)F)c3)nc3cc(CN4CCN(CCOCCOc5ccc6c(c5)C(=O)N(C5CCC(=O)NC5=O)C6=O)CC4)ccc32)CC1` (stereo not drawn) [compound 7, N-(5-((4-(2-(2-((2-(2,6-dioxopiperidin-3-yl)-1,3-dioxoisoindolin-5-yl)oxy)ethoxy)ethyl)piperazin-1-yl)methyl)-1-((1s,4s)-4-methylcyclohexyl)-1H-benzo[d]imidazol-2-yl)-3-(trifluoromethyl)benzamide] showed a pIC50 in assay [1] of 6.52 to 7.00. Moreover, in assay [2], the DC50 was no less than 1000 nM and the Dmax lay within 30 to 50%.
In the same order, the values of `Cc1ncsc1-c1ccc(CNC(=O)[C@@H]2C[C@@H](O)CN2C(=O)[C@@H](NC(=O)COCCN2CCN(Cc3ccc4c(c3)nc(NC(=O)c3cccc(C(F)(F)F)c3)n4C3CCC(CO)CC3)CC2)C(C)(C)C)cc1` (mixture of isomers) [compound 11, (2S,4R)-4-hydroxy-1-((S)-2-(2-(2-(4-((1-((1SR,4SR)-4-(hydroxymethyl)cyclohexyl)-2-(3-(trifluoromethyl)benzamido)-1H-benzo[d]imidazol-5-yl)methyl)piperazin-1-yl)ethoxy)acetamido)-3,3-dimethylbutanoyl)-N-(4-(4-methylthiazol-5-yl)benzyl)pyrrolidine-2-carboxamide] are 6.00 to 6.52, no less than 1000 nM and greater than 70%.
The compound `O=C1CCC(N2C(=O)c3ccc(OCCOCCOCCN4CCN(Cc5ccc6c(c5)nc(NC(=O)c5cccc(C(F)(F)F)c5)n6-c5ccccc5)CC4)cc3C2=O)C(=O)N1` (stereo not drawn) [compound 53, N-(5-((4-(2-(2-(2-((2-(2,6-dioxopiperidin-3-yl)-1,3-dioxoisoindolin-5-yl)oxy)ethoxy)ethoxy)ethyl)piperazin-1-yl)methyl)-1-phenyl-1H-benzo[d]imidazol-2-yl)-3-(trifluoromethyl)benzamide] had a negative-log IC50 (pIC50) in assay [1] of no more than 6.00. Besides, the DC50 in assay [2] is no less than 1000 nM.
Compound `N#Cc1ccc2ncnc(N[C@H]3CC[C@@H](N4CCN(S(=O)(=O)CCOCCOCCOc5ccc6c(c5)C(=O)N(C5CCC(=O)NC5=O)C6=O)CC4)CC3)c2c1` (stereo partly drawn) [compound 37] had a pIC50 in assay [1] of no more than 6.00.
Still for that read-out and setting: as for `COc1cccc(-n2c(NC(=O)c3cccc(C(F)(F)F)c3)nc3cc(CN4CCN(CCOCCOc5ccc6c(c5)C(=O)N(C5CCC(=O)NC5=O)C6=O)CC4)ccc32)c1` (stereo not drawn) [compound 57, N-(5-((4-(2-(2-((2-(2,6-dioxopiperidin-3-yl)-1,3-dioxoisoindolin-5-yl)oxy)ethoxy)ethyl)piperazin-1-yl)methyl)-1-(3-methoxyphenyl)-1H-benzo[d]imidazol-2-yl)-3-(trifluoromethyl)benzamide], the figure is no more than 6.00.
With `O=C1CCC(N2C(=O)c3ccc(OCCN4CCC(CN5CCN(Cc6ccc7c(c6)nc(NC(=O)c6cccc(C(F)(F)F)c6)n7C6CCC(CO)CC6)CC5)CC4)cc3C2=O)C(=O)N1` (stereo not drawn) [compound 10], in assay [2], the Dmax is greater than 70%.
Regarding `O=C1CCC(N2C(=O)c3ccc(OCCOC[C@H]4CC[C@@H](n5c(NC(=O)c6cccc(C(F)(F)F)c6)nc6cc(F)ccc65)CC4)cc3C2=O)C(=O)N1` (stereo partly drawn) [compound 45], the pIC50 in assay [1] was no more than 6.00.
Same read-out and setting: as for `N#Cc1ccc2ncnc(N[C@H]3CC[C@@H](N4CCN(S(=O)(=O)CCOCCOCCOCCOc5ccc6c(c5)C(=O)N(C5CCC(=O)NC5=O)C6=O)CC4)CC3)c2c1` (stereo partly drawn) [compound 39], the figure is no more than 6.00.
Same read-out and setting: in the case of `N#Cc1ccc2ncnc(N[C@H]3CC[C@H](N4CCN(S(=O)(=O)CCOCCOCCOCCOc5ccc6c(c5)C(=O)N(C5CCC(=O)NC5=O)C6=O)CC4)CC3)c2c1` (stereo partly drawn) [compound 38] it was no more than 6.00.
Turning to `O=C1CCC(N2C(=O)c3ccc(OC4CCC(CN5CCN(Cc6ccc7c(c6)nc(NC(=O)c6cccc(C(F)(F)F)c6)n7C6CCC(CO)CC6)CC5)CC4)cc3C2=O)C(=O)N1` (stereo not drawn) [compound 67, N-(5-((4-((4-((2-(2,6-dioxopiperidin-3-yl)-1,3-dioxoisoindolin-5-yl)oxy)cycloethyl)methyl)piperazin-1-yl)methyl)-1-((1s,4s)-4-(hydroxymethyl)cyclohexyl)-1H-benzo[d]imidazol-2-yl)-3-(trifluoromethyl)benzamide], in assay [2], the DC50 lay in the range of 30 to 100 nM and the maximal degradation (Dmax) was greater than 70%.
In the case of `O=C1CCC(N2C(=O)c3ccc(OCCN4CCN(Cc5ccc6c(c5)nc(NC(=O)c5cccc(C(F)(F)F)c5)n6C5CCC(CO)CC5)CC4)cc3C2=O)C(=O)N1` (stereo not drawn) [compound 1, N-(5-((4-(2-((2-(2,6-dioxopiperidin-3-yl)-1,3-dioxoisoindolin-5-yl)oxy)ethyl)piperazin-1-yl)methyl)-1-((1s,4s)-4-(hydroxymethyl)cyclohexyl)-1H-benzo[d]imidazol-2-yl)-3-(trifluoromethyl)benzamide], the greatest degradation seen (Dmax) in assay [2] was in the range of 30 to 50%.
For `O=C1CCC(N2C(=O)c3ccc(OCCOCCOCCOCC4CCC(n5c(NC(=O)c6cccc(C(F)(F)F)c6)nc6cc(CN7CCCCC7)ccc65)CC4)cc3C2=O)C(=O)N1` (stereo not drawn) [compound 43, N-(1-((1s,4s)-4-((2-(2-(2-((2-(2,6-dioxopiperidin-3-yl)-1,3-dioxoisoindolin-5-yl)oxy)ethoxy)ethoxy)ethoxy)methyl)cyclohexyl)-5-(piperidin-1-ylmethyl)-1H-benzo[d]imidazol-2-yl)-3-(trifluoromethyl)benzamide], in assay [2], the DC50 was no less than 1000 nM.
`COc1cc2nn(C3CCN(CCOCCOCCOCCNc4cccc5c4C(=O)N(C4CCC(=O)NC4=O)C5=O)CC3)cc2cc1NC(=O)c1cccc(C(F)(F)F)n1` (stereo not drawn) [compound 64, N-(2-(1-(2-(2-(2-(2-((2-(2,6-dioxopiperidin-3-yl)-1,3-dioxoisoindolin-4-yl)amino)ethoxy)ethoxy)ethoxy)ethyl)piperadin-4-yl)-6-methoxy-2H-indazol-5-yl)-6-(trifluoromethyl)picolinamide]: in assay [1], the pIC50 was greater than 7.52.
For `O=C1CCC(N2C(=O)c3cccc(NCCOCCOCCN4CCN(Cc5ccc6c(c5)nc(NC(=O)c5cccc(C(F)(F)F)c5)n6C5CCC(CO)CC5)CC4)c3C2=O)C(=O)N1` (stereo not drawn) [compound 66, N-(5-((4-(2-(2-(2-((2-(2,6-dioxopiperidin-3-yl)-1,3-dioxoisoindolin-4-yl)amino)ethoxy)ethoxy)ethyl)piperazin-1-yl)methyl)-1-((1s,4s)-4-(hydroxymethyl)cyclohexyl)-1H-benzo[d]imidazol-2-yl)-3-(trifluoromethyl)benzamide], in assay [2], the Dmax lay within 50 to 70%.
Consider `COc1cc2nn(C3CCN(CCOCCOCCNc4cccc5c4C(=O)N(C4CCC(=O)NC4=O)C5=O)CC3)cc2cc1NC(=O)c1cccc(C(F)(F)F)n1` (stereo not drawn) [compound 62, N-(2-(1-(2-(2-(2-((2-(2,6-dioxopiperidin-3-yl)-1,3-dioxoisoindolin-4-yl)amino)ethoxy)ethoxy)ethyl)piperadin-4-yl)-6-methoxy-2H-indazol-5-yl)-6-(trifluoromethyl)picolinamide], for which the pIC50 in assay [1] is greater than 7.52.
